Experimental data published in patent US6375944B1, “Methods and compositions for enhancing the immunostimulatory effect of interleukin-12” (The Wistar Institute of Anatomy and Biology, priority 1998, dated 2002).
Values joined by “and” are separate entries in the source; they are usually repeats but may differ in a detail not shown here. Equal values may be shown once.

How the values were obtained:
SCK cells [1] = assay: SCK.GM cell vaccination followed by SCK tumor cell challenge; format: in vivo, A/J mice; conditions: for Effect on SCK.GM-induced protection: mice not treated with rmIL-12, data not shown
From the text: A. Female A/J mice were vaccinated with 10^6 irradiated SCK.GM cells suspended in PBS at 10^7 trypan blue-excluding cells/ml. Cells were irradiated with 6000 rads from a ^137Cs source, and mice were vaccinated with 10^6 cells s.c. (day 0). […] Vaccinated and naive A/J mice were challenged fourteen days after vaccination with 2.5×10^4 trypan blue-excluding SCK cells in the opposite flank to assay for the presence of tumor immunity. Tumorigenesis was scored daily.

SCK cells [2] = assay: Tumor cell rechallenge in mice with established SCK immunity; format: in vivo, A/J mice; conditions: for Prevention of rmIL-12 impairment of immune rejection: given with rmIL-12 therapy, established SCK immunity; for mice that developed tumors: rmIL-12 treated mice with established SCK immunity, data not shown
From the text: Thus, L-NAME prevents rmIL-12 suppression of established antitumor immune responses.

SCK cells [3] = assay: Irradiated wild-type SCK cell vaccination followed by SCK tumor cell challenge; format: in vivo, A/J mice; conditions: for mice that developed tumors: given with irradiated SCK cells and rmIL-12, challenged on day 14
From the text: Female A/J mice (8 mice per group) were vaccinated with 10^6 irradiated SCK cells and received either PBS, rmIL-12, rmIL-12+L-NAME or rmIL-12 and D-NAME on days 0-4 and 7-11. Mice were challenged fourteen days after vaccination with 2.5×10^4 SCK cells in the opposite flank. Tumorigenesis was scored daily, as described above.

SCK tumors = assay: Antitumor activity of rmIL-12 against SCK tumors (tumorigenesis scored daily); format: in vivo, A/J mice
Procedure: Female A/J mice were injected with 2.5×10^4 SCK cells and either PBS, rmIL-12, rmIL-12+L-NAME or rmIL-12 and D-NAME on days 0-4 and 7-11. Tumorigenesis was scored daily, as described above.

splenocytes = assay: Mitogen and alloantigen stimulation of splenocytes (3H-thymidine incorporation), whole or adherent/nonadherent cocultures; format: cell-based, mice; design: Effect on mitogenesis / inhibition of mitogenic responses: dose or concentration left out as unconfirmed
Procedure: The mitogen and alloantigen stimulation of splenocytes assay was performed as follows: In vitro mitogenic stimulation of splenocytes with […] Con A or 100 U/ml rmIL-12 was performed as described [Kurzawa, cited above]. Proliferative responses to allogeneic antigens (mixed lymphocyte reaction, MLR) was measured when splenocytes from the mice were stimulated with 10^5 mitomycin treated A/J splenocytes. Splenocyte fractionation was performed by allowing 10^5 splenocytes to adhere for 90 minutes in 96 well plates, after which the nonadherent cells were removed and cocultured with adherent cells from different wells for assay. When added, antibodies (XMG6 for IFNγ, XT22 for TNFα, AE5 for IL-10 and C17.8 for IL-12 ) were used at […] final concentration. After 72 hours exposure to mitogen, cultures were pulsed with 1 μCi^3H-thymidine for 16 hours, cells were harvested and ^3H incorporation was measured by scintillation counting. Supernatants from cultures assayed for IFNγ by radioimmunoassay (RIA) (using antibodies AN18 and XMG6 [Wysocka, M. et al. 1995 Eur. J. Immunol. 25:672] were harvested 24 or 72 hours after stimulation.
A. Splenocytes from rmIL-12- and PBS-treated C57BL/6 mice were fractioned by adherence to 96 well plastic plates for 90 minutes. The cells were reconstituted in various combinations of adherent and nonadherent cells by overlaying nonadherent cells on the adherent cells. These cocultures were then stimulated with either 2.5 μg/ml Con A, 100 U/ml IL-12, or 10^5 mitomycin C treated A/J (H-2A) splenocytes, as described in the mitogen/alloantigen assay of Example 1.
B. Cocultures were established from splenic adherent and nonadherent cells of PBS-treated mice or from the adherent cells of rmIL-12-treated mice and nonadherent cells of PBS-treated mice. Antibodies XMG6 (to IFNγ), XT22 (to TNFα), AE5 (to IL-10) and C17.8 (to IL-12 ) were added to a final concentration of […] in cocultures containing adherent cells from spleen of rmIL-12-treated mice, also according to the assay described in Example 1.
(§1) Cocultures were established from splenic adherent and nonadherent cells of PBS-treated mice or from the adherent cells of rmIL-12-treated mice and nonadherent cells of PBS-treated mice. Antibodies XMG6 (to IFNγ), XT22 (to TNFα), AE5 (to IL-10) and C17.8 (to IL-12) were added to a final concentration of […] in cocultures containing adherent cells from spleen of rmIL-12-treated mice. An inhibitor of inducible nitric oxide synthase (iNOS), L-NMMA (Sigma), was added to cocultures of adherent cells from rmIL-12 treated mice and nonadherent cells from control mice at a final concentration of […]. Alternatively, D-NMMA (Sigma), a noninhibitory isoform of L-NMMA, was added to other cocultures as a control.

NO production = NO production measured as nitrite in stimulated cell supernatants by the Greiss assay; format: cell-based; design: dose or concentration left out as unconfirmed; conditions: cocultures of adherent cells from rmIL-12 treated mice and nonadherent control cells; compared to D-NMMA; two independent measurements
Procedure: as §1
NO production was measured as nitrite concentration in stimulated cell supernatants by the Greiss assay [Green, L. C. et al, Anal. Biochem 126:131 (1982)]. Supernatant (100 μl) was added to 96 well plates; 100 μl of a 1:1 mixture of 1% sulfanilamide dihydrochloride in 2.5% H3PO4 and 0.1% naphthylethylenediamine dihydrochloride in 2.5% H3PO4 was then added to samples. Plates were incubated at room temperature for 10 minutes and A540 was determined using a microplate reader with reference to sodium nitrite standard curves. S-nitroso-N-acetyl-penillamine (SNAP, Sigma), an NO donor, was used as a acellular source of NO and was added to splenocytes from HKB-vaccinated C57BL/6 mice.

[4] = SCK-vaccinated mice, at 28 days, rmIL-12 alone, or L-NAME/D-NAME given with rmIL-12

Compound	Effect on SCK.GM-induced protection (SCK cells [1])	Prevention of rmIL-12 impairment of immune rejection (SCK cells [2])	mice that developed tumors (SCK cells [2]) [%]	level of protection (SCK cells [3]; [4]) [%]	mice that developed tumors (SCK cells [3]) [%]	also measured
COC(=O)[C@H](N)CCCNC(=N)N[N+](=O)[O-] [D-NAME, N^ω-nitro-D-arginine methyl ester]	had no effect	not	75	50	75	mice that developed tumors (SCK cells [1]; SCK.GM vaccinated, given with rmIL-12, challenge 14 days after vaccination): 75%
COC(=O)[C@@H](N)CCCNC(=N)N[N+](=O)[O-] [L-NAME, N^ω-nitro-L-arginine methyl ester]	had no effect	prevented this impairment of immune rejection	25	50	38	Prevention of rmIL-12 impairment of SCK.GM vaccine protection (SCK cells [1]; given with rmIL-12 days 0-4 and 7-11, challenge 14 days after vaccination): prevented this impairment; level of protection (SCK cells [3]; SCK-vaccinated, given with rmIL-12, at 14 days): 62%; median days to tumor appearance (SCK tumors; 2.5×10^4 SCK cells, treatment days 0-4 and 7-11, L-NAME given with rmIL-12, 9 days without rmIL-12): 17 days; delay of tumor appearance vs. mice given rmIL-12 alone or with D-NAME (SCK tumors; L-NAME given with rmIL-12): 3 days; Effect on SCK tumorigenesis (SCK tumors; given without rmIL-12, data not shown): had no effect on SCK tumorigenesis; delay of tumor appearance vs. untreated mice (SCK tumors; treatment started on day of SCK cell injection, L-NAME given with rmIL-12): 8 days
CNC(=N)NCCC[C@H](N)C(=O)O [L-NMMA, N^G-monomethyl-L-arginine]	–	–	–	–	–	Effect on mitogenesis (splenocytes; cocultures of adherent cells from rmIL-12 treated mice and nonadherent control cells, compared to D-NMMA): restored mitogenesis; reduction of NO levels in the culture supernatant (NO production): 58% and 94%
S-nitroso-N-acetyl-penillamine [SNAP, reference compound]	–	–	–	–	–	inhibition of mitogenic responses (splenocytes; splenocytes from HKB-vaccinated C57BL/6 mice, cultures with NO levels as low as): 83-98%
